The record followed here is US11492348B2, “Tri-substituted aryl and heteroaryl derivatives as modulators of PI3-kinase and autophagy pathways” (Neuropore Therapies, Inc., priority 2018, dated 2022).

Structures are written as SMILES. Structures can show the parent of a compound that is named as a salt.

One test addresses PI3Kα (Homo sapiens (Human), UniProt P42336). Briefly: Inhibition of PI3Kα (ADP-Glo kinase activity assay, ATP to ADP conversion). Conditions: 25 μM PIP2:PS, 60 μM ATP, 30 min reaction, luminescence. The class given is biochemical. In outline:
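Recombinant active PI3Kα (1.1 nM) in HEPES pH 7.5 buffer with 6 mM MgCl2 and 8 mM DTT was preincubated with compound for 0 or 3 h. The reaction ran for 30 min with 25 µM PIP2:PS and 60 µM ATP, and ADP formation was read by ADP-Glo luminescence. IC50 came from a 12-point, 1:3 series fitted with a 4-parameter model, bottom fixed to reference inhibitor controls and top floating.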

For test [1], the system named is (Ser-473) pAKT in B103 (Rat Neuroblastoma) cells. Briefly: pAKT protocol: loss of (Ser-473) pAKT by AlphaScreen in insulin-stimulated B103 cells. It counts as cell-based. Conditions: (Ser-473) pAKT/total AKT IC50, 2-hour pretreatment, 2.5 μg/mL insulin 20 minutes. The procedure: Inhibition of the PI3K-AKT-mTOR pathway was measured by quantifying the loss of (Ser-473) pAKT using AlphaScreen (Perkin Elmer). B103 (Rat Neuroblastoma) cells were seeded in serum containing medium (High Glucose DMEM (-Phenol Red)+10% FBS+2× Glutamax+1 mM Sodium Pyruvate+10 mM HEPES+1× Non-Essential Amino Acids+1× Pen/Strep) on a 96-well tissue culture treated plate and grown for 20 hours. Cells were then serum starved in serum free medium (High Glucose DMEM (-Phenol Red)+1× Glutamax+1 mM Sodium Pyruvate+1× Pen/Strep) for 6 hours prior to a 2-hour pretreatment with inhibitors of the pathway, including reference inhibitor LY294002. These inhibitors were prepared at a 200× final concentration as a 6-point, 1:3 serial dilution in DMSO series, with DMSO as the 7th point. The inhibitors were then diluted in experimental medium (High Glucose DMEM (-Phenol Red)+1× Glutamax+1 mM Sodium Pyruvate+1× Pen/Strep+25 mM HEPES+0.1% BSA) and combined with the cells at 1× final concentration in 0.5% DMSO. […] Cells were promptly lysed using Perkin Elmer proprietary lysis buffer and the (Ser-473) pAKT and total AKT contained in the lysate was measured by AlphaScreen. In AlphaScreen, donor beads were coated with streptavidin to capture one of the antibodies, which is biotinylated. Acceptor beads were coated with Protein A to immobilize the other antibody. In the presence of target protein, the two antibodies bring the donor and acceptor beads close together, generating signal. The amount of light emission is directly proportional to the amount of target protein present in the sample. For each inhibitor tested: the ratio of measured (Ser-473) pAKT/totalAKT was plotted in GraphPad Prism as a 7-point, non-linear regression, 4-parameter curve with bottom constrained to reference control bottom and unconstrained top anchored to DMSO.
Background: In Alpha technology, singlet oxygen from a donor bead excites a nearby acceptor bead.

For a further test, the target named is mTor kinase (Homo sapiens (Human), UniProt P42345). Briefly: mTor assay (33P-ATP filter-binding kinase assay). It counts as biochemical. As to conditions: 2 hours at room temperature. The procedure:
The substrate was prepared in base reaction buffer (20 mM Hepes (pH 7.5), 10 mM MgCl2, 1 mM EGTA, 0.02% Brij35, 0.02 mg/ml BSA, 0.1 mM Na3VO4, 2 mM DTT, 1% DMSO), and required cofactors were added to the substrate solution. The mTor kinase was delivered into the substrate solution, and the solution was gently mixed. Testing compounds were dissolved in 100% DMSO to specific concentration. The serial dilution was conducted by Integra Viaflo Assist in DMSO. The compounds were delivered into the kinase reaction mixture by Acoustic technology (Echo550; nanoliter range), and the reaction mixture was incubated for 20 min at room temperature. Then, 33P-ATP (Specific activity 10 μCi/μl) was delivered into the reaction mixture to initiate the reaction. The reaction mixture was incubated for 2 hours at room temperature. Radioactivity was detected by a filter-binding method. Kinase activity data were expressed as the percent remaining kinase activity in test samples compared to vehicle (dimethyl sulfoxide) reactions. IC50 values and curve fits were obtained using Prism (GraphPad Software).

PI3Kα, sequence (P42336 whole entry): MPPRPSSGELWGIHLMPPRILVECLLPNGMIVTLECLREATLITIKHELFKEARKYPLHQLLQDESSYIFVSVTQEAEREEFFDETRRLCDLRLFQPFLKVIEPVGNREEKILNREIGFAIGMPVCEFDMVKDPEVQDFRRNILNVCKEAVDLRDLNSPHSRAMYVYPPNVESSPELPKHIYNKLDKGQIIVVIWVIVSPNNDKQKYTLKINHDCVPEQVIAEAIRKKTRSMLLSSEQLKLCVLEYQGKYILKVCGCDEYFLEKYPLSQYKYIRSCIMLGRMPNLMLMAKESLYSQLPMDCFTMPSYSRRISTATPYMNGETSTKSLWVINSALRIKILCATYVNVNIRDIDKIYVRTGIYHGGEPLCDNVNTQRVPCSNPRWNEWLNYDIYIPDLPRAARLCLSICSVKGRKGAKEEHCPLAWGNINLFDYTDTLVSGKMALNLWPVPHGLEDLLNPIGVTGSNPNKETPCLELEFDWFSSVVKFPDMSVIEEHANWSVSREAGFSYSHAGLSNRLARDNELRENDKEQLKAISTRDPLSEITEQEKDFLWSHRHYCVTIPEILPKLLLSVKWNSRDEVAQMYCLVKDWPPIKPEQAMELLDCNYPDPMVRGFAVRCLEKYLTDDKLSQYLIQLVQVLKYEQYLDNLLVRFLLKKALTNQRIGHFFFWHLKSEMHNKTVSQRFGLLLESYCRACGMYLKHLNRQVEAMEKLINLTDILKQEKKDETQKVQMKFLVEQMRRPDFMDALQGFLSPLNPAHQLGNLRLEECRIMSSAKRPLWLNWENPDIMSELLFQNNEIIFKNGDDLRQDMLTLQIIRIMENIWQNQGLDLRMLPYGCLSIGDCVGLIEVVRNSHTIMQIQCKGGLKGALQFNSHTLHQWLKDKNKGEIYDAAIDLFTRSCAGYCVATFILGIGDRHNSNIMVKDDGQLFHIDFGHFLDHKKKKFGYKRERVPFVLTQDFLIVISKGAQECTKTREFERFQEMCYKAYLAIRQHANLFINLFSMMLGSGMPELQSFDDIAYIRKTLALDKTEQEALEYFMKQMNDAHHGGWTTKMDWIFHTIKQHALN
PI3Kα, sequence (P27986 whole entry partner): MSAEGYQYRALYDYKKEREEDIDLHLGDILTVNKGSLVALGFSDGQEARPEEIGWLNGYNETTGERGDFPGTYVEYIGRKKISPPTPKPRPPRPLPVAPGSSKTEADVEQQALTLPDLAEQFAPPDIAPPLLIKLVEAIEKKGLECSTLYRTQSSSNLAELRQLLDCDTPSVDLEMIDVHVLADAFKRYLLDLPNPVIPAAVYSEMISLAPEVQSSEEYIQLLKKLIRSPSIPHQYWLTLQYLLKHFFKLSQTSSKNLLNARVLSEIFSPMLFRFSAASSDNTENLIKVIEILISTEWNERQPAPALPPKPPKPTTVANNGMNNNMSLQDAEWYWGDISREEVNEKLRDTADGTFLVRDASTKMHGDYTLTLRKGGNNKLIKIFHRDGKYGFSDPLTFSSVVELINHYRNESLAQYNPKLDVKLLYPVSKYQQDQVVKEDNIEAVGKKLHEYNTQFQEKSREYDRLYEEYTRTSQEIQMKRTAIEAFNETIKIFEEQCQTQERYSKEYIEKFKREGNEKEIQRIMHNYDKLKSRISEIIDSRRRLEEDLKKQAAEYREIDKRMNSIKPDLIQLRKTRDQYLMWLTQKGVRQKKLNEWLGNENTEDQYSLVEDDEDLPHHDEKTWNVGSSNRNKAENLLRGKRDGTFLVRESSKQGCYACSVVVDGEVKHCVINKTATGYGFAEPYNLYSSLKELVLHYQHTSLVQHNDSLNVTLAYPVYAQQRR

What is called IC50 is the concentration that inhibits the measured activity by half. With `Nc1ncc(-c2cc(N3CCOCC3)cc(S(=O)(=O)Cc3ccc4[nH]ccc4c3)c2)cn1` [Compound 56, 5-(3-(((1H-indol-5-yl)methyl)sulfonyl)-5-morpholinophenyl)pyrimidin-2-amine], the “PI3Ka IC50” value on PI3Kα is 0.26 µM. In addition, the results for the IC50 (in test [1]; at mTor kinase) were 19.8 µM and 6.15 µM, respectively.

Consider `Nc1ncc(-c2cc(C(F)(F)C3CCOCC3)cc(N3CCOCC3)n2)cn1` [Compound 133, 5-(4-(difluoro(tetrahydro-2H-pyran-4-yl)methyl)-6-morpholinopyridin-2-yl)pyrimidin-2-amine], for which, at PI3Kα, the “PI3Ka IC50” value is 0.012 µM. The IC50 in test [1] was found to be 0.4 µM; on mTor kinase it was 0.44 µM.

Take `CS(=O)(=O)Nc1ccc(CS(=O)(=O)c2cc(-c3cnc(N)nc3)cc(N3CCOCC3)c2)cc1` [57 (as a TFA salt), N-(4-(((3-(2-aminopyrimidin-5-yl)-5-morpholinophenyl)sulfonyl)methyl)phenyl) methanesulfonamide]: the IC50 was 480 nM at PI3Kα (read-out: PI3Ka IC50), 19.8 µM in test [1] and 3.44 µM at mTor kinase.

`CCNC(=O)N1CC(S(=O)(=O)c2cc(-c3cnc(N)nc3)cc(N3CCOCC3)c2)C1` [Compound 93, 3-((3-(2-aminopyrimidin-5-yl)-5-morpholinophenyl)sulfonyl)-N-ethylazetidine-1-carboxamide]: the “PI3Ka IC50” value on PI3Kα turned out to be 0.088 µM. In addition, the results for the IC50 (in test [1]; at mTor kinase) were 5.44 µM and 0.87 µM, respectively.

As to `Nc1ncc(-c2cc(C3(c4ccccc4)CC3)cc(N3CCOCC3)n2)cn1` [Compound 127, 5-(6-morpholino-4-(1-phenylcyclopropyl)pyridin-2-yl)pyrimidin-2-amine], the “PI3Ka IC50” value at PI3Kα is 0.056 µM. Also, the IC50 in test [1] was found to be 0.38 µM; at mTor kinase, 0.13 µM.

Consider `Nc1ncc(-c2cc(N3CCOCC3)cc(S(=O)(=O)C3COc4ccccc43)c2)cn1` (stereo not drawn) [Compound 119, 5-(3-((2,3-dihydrobenzofuran-3-yl)sulfonyl)-5-morpholinophenyl)pyrimidin-2-amine], for which the “PI3Ka IC50” value on PI3Kα amounted to 0.11 µM. For the same compound, the IC50 in test [1] was determined as 4 µM; on mTor kinase, 4.7 µM.

With `Nc1ncc(-c2cc(N3CCOCC3)cc(S(=O)(=O)C(F)(F)c3ccccc3)c2)cn1` [Compound 87, 5-(3-((difluoro(phenyl)methyl)sulfonyl)-5-morpholinophenyl)pyrimidin-2-amine], on PI3Kα, the “PI3Ka IC50” value is 0.21 µM. Further, the IC50 in test [1] turned out to be 1 µM; on mTor kinase, 1.44 µM.

Regarding `O=S(=O)(Cc1ccc(F)cc1)c1cc(-c2cccc(O)c2)cc(N2CCOCC2)c1` [Compound 41, 3′-((4-fluorobenzyl)sulfonyl)-5′-morpholino-[1,1′-biphenyl]-3-ol], the “PI3Ka IC50” value at PI3Kα was found to be 0.53 µM. Also, the results for the IC50 (in test [1]; at mTor kinase) were 0.86 µM and 4.27 µM, respectively.

With `Nc1ncc(-c2cc(N3CCOCC3)cc(S(=O)(=O)CC3CCOCC3)c2)cn1` [Compound 39, 5-(3-morpholino-5-(((tetrahydro-2H-pyran-4-yl)methyl)sulfonyl)phenyl)pyrimidin-2-amine], the “PI3Ka IC50” value on PI3Kα is 0.79 µM. Besides, the IC50 in test [1] worked out at 9.9 µM; on mTor kinase, 4.8 µM.

With `N#Cc1ccc(S(=O)(=O)c2cc(-c3cnc(N)nc3C(F)(F)F)cc(N3CCOCC3)c2)cc1` [Compound 17, 4-((3-(2-amino-4-(trifluoromethyl)pyrimidin-5-yl)-5-morpholinophenyl)sulfonyl)benzonitrile], at PI3Kα, the “PI3Ka IC50” value was found to be 1.9 µM. Also, the IC50 (in test [1]; on mTor kinase) was 100 µM in each case.

On to `CC(C)(C)OC(=O)N1CC(S(=O)(=O)c2cc(-c3cnc(N)nc3)cc(N3CCOCC3)c2)C1` [Compound 54, tert-butyl 3-((3-(2-aminopyrimidin-5-yl)-5-morpholinophenyl)sulfonyl) azetidine-1-carboxylate], for which the “PI3Ka IC50” value at PI3Kα was found to be 0.13 µM. For the same compound, the IC50 in test [1] is 2.46 µM; at mTor kinase, 0.59 µM.

As to `Nc1ncc(-c2cc(N3CCOCC3)cc(S(=O)(=O)[C@H]3CCOC3)c2)cn1` [Compound 53, (S)-5-(3-morpholino-5-((tetrahydrofuran-3-yl)sulfonyl)phenyl)pyrimidin-2-amine], on PI3Kα, the “PI3Ka IC50” value was found to be 0.11 µM. The IC50 in test [1] was 1.65 µM; at mTor kinase, 0.54 µM.

With `Cc1cnccc1-c1cc(N2CCOCC2)cc(S(=O)(=O)c2ccccc2)c1` [Compound 12, 4-(3-(3-methylpyridin-4-yl)-5-(phenylsulfonyl)phenyl)morpholine], the “PI3Ka IC50” value at PI3Kα was determined as 9.0 µM. Further, the IC50 (in test [1]; on mTor kinase) was 100 µM throughout.

Consider `Nc1ncc(-c2cc(N3CCOCC3)cc(S(=O)(=O)Cc3c[nH]cn3)c2)cn1` [59 (as a TFA salt), 5-(3-(((1H-imidazol-4-yl)methyl)sulfonyl)-5-morpholinophenyl)pyrimidin-2-amine], for which the “PI3Ka IC50” value on PI3Kα is 0.46 µM. The IC50 was 36.1 µM in test [1] and 4.6 µM on mTor kinase.

As to `N#Cc1cccc(S(=O)(=O)c2cc(-c3cnc(N)nc3)cc(N3CCOCC3)c2)c1` [Compound 13, 3-((3-(2-aminopyrimidin-5-yl)-5-morpholinophenyl)sulfonyl)benzonitrile], the “PI3Ka IC50” value on PI3Kα was 0.91 µM. The values for the IC50 (in test [1]; on mTor kinase) were 28.6 µM and 10 µM, respectively.

For the compound `Nc1cc(F)c(-c2cc(N3CCOCC3)cc(S(=O)(=O)[C@@H]3CCOC3)c2)cn1` [Compound 106, (R)-4-fluoro-5-(3-morpholino-5-((tetrahydrofuran-3-yl)sulfonyl)phenyl)pyridin-2-amine], at PI3Kα, the “PI3Ka IC50” value came out at 0.10 µM. For the same compound, the results for the IC50 (in test [1]; at mTor kinase) were 4.1 µM and 1.46 µM, respectively.

For the compound `Nc1ncc(-c2cc(N3CCOCC3)cc(S(=O)(=O)Cc3ccccc3F)c2)cn1` [Compound 50, 5-(3-((2-fluorobenzyl)sulfonyl)-5-morpholinophenyl)pyrimidin-2-amine], at PI3Kα, the “PI3Ka IC50” value was 0.28 µM. The values for the IC50 (in test [1]; at mTor kinase) were above 50 µM and 2.98 µM, respectively.

In the case of `Nc1ncc(-c2cc(N3CCOCC3)cc(S(=O)(=O)c3cccc4ccoc34)c2)cn1` [Compound 110, 5-(3-(benzofuran-7-ylsulfonyl)-5-morpholinophenyl)pyrimidin-2-amine], the “PI3Ka IC50” value on PI3Kα was found to be 0.40 µM. The IC50 in test [1] was 8.7 µM; at mTor kinase, 9.9 µM.

As for `Cc1ccc(S(=O)(=O)c2cc(-c3cnc(N)nc3)cc(N3CCOCC3)c2)cc1` [Compound 21, 5-(3-morpholino-5-tosylphenyl)pyrimidin-2-amine], the “PI3Ka IC50” value at PI3Kα is 2.1 µM. Also, the IC50 in test [1] came to 37 µM; on mTor kinase it was 9.39 µM.

In the case of `CC(c1ccccc1)c1cc(-c2cnc(N)nc2)nc(N2CCOCC2)c1` (stereo not drawn) [Compound 125, 5-(6-morpholino-4-(1-phenylethyl)pyridin-2-yl)pyrimidin-2-amine], the “PI3Ka IC50” value on PI3Kα stood at 0.21 µM. Besides, the values for the IC50 (in test [1]; at mTor kinase) were 0.81 µM and 0.27 µM, respectively.

Turning to `O=S(=O)(Cc1ccccc1)c1cc(-c2cnc(NCCO)nc2)cc(N2CCOCC2)c1` [Compound 35, 2-((5-(3-(benzylsulfonyl)-5-morpholinophenyl)pyrimidin-2-yl)amino)ethan-1-ol], the “PI3Ka IC50” value on PI3Kα came to 1.1 µM. For the same compound, the IC50 in test [1] came out at 23.5 µM; at mTor kinase it was 12.2 µM.

Consider `CC(=O)N1CC(S(=O)(=O)c2cc(-c3cnc(N)nc3)cc(N3CCOCC3)c2)C1` [Compound 68, 1-(3-((3-(2-aminopyrimidin-5-yl)-5-morpholinophenyl)sulfonyl)azetidin-1-yl)ethan-1-one], for which the “PI3Ka IC50” value at PI3Kα was determined as 0.047 µM. Moreover, the IC50 in test [1] worked out at 4.66 µM; on mTor kinase, 1.21 µM.
